Measurements reported in article PMC5540273, “Progress towards a public chemogenomic set for protein kinases and a call for contributions” (PLoS ONE, 2017).

Key:
Assay in all cases: KINOMEscan competition binding
HASPIN = target: T1, HASPIN (Homo sapiens, UniProt Q8TF76); conditions: read-out: %Inh HASPIN
T1 sequence (Q8TF76 1-798): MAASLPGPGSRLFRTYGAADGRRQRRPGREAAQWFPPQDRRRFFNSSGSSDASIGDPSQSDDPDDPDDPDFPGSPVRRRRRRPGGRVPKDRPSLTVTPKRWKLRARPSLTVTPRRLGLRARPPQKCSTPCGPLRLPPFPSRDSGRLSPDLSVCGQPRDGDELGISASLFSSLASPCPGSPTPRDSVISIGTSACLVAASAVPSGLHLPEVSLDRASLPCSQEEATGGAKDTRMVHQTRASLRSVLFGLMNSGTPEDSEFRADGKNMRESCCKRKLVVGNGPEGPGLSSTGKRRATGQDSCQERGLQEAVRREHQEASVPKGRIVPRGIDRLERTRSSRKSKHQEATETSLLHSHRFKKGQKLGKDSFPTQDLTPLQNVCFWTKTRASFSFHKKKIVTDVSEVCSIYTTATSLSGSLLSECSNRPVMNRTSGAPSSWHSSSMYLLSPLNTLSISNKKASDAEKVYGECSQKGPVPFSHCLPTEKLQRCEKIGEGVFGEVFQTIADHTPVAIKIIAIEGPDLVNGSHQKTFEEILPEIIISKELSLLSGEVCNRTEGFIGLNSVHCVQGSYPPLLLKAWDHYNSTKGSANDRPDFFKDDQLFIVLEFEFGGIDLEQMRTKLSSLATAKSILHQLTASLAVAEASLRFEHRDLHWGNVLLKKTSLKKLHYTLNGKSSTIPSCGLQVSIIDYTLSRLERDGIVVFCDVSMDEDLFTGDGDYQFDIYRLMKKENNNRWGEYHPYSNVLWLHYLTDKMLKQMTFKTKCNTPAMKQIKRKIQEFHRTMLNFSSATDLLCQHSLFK

CDK5 = CDK5 (Homo sapiens, UniProt Q00535); conditions: read-out: %Inh CDK5
Sequence of CDK5 (Q00535 whole entry): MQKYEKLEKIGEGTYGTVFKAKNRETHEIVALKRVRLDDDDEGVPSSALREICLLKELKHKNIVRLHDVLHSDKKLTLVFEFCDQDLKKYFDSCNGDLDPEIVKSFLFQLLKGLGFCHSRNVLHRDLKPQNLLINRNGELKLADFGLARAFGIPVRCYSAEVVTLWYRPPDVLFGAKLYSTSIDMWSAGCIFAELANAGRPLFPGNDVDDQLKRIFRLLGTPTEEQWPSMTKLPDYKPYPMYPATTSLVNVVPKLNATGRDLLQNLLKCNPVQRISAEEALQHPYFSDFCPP

AMPK-alpha2 = AMPK-alpha2 (Homo sapiens, UniProt P54646); conditions: read-out: %Inh AMPK-alpha2
Sequence of AMPK-alpha2 (P54646 whole entry): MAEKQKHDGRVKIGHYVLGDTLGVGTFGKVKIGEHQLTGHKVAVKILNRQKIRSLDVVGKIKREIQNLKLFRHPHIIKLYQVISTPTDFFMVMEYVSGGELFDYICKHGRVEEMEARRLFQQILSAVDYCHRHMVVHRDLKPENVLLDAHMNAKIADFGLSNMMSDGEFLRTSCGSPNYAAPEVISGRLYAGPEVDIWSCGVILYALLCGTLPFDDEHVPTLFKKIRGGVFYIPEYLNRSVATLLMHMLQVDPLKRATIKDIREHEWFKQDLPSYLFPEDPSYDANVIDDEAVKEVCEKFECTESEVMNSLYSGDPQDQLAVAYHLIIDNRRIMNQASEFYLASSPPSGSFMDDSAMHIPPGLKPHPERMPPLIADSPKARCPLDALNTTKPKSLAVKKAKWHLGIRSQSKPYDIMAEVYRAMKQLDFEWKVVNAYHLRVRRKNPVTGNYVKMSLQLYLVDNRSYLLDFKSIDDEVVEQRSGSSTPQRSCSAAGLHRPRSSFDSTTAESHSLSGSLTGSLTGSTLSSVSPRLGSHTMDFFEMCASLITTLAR

DMPK = target: T2, DMPK (Homo sapiens, UniProt Q09013); conditions: read-out: %Inh DMPK
T2 sequence (Q09013 1-629): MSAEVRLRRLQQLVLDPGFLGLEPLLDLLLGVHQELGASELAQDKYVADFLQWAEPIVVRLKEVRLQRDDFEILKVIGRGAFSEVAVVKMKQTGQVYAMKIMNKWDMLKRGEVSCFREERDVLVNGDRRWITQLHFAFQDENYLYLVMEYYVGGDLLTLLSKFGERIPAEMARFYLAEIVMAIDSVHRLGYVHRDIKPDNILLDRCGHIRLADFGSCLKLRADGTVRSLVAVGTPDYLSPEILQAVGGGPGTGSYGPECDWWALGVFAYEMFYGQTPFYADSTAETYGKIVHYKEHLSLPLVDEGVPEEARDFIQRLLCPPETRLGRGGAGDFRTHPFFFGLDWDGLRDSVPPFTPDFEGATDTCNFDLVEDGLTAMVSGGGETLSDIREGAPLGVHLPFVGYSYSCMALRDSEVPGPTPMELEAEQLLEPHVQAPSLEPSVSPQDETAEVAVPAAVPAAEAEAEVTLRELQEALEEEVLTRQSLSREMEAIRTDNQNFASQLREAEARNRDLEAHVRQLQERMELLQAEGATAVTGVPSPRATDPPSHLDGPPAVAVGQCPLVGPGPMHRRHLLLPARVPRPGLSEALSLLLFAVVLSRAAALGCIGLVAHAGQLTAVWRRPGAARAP

ASK1 = target: T3, ASK1 (Homo sapiens, UniProt Q99683); conditions: read-out: %Inh ASK1
T3 sequence (Q99683 1-1374): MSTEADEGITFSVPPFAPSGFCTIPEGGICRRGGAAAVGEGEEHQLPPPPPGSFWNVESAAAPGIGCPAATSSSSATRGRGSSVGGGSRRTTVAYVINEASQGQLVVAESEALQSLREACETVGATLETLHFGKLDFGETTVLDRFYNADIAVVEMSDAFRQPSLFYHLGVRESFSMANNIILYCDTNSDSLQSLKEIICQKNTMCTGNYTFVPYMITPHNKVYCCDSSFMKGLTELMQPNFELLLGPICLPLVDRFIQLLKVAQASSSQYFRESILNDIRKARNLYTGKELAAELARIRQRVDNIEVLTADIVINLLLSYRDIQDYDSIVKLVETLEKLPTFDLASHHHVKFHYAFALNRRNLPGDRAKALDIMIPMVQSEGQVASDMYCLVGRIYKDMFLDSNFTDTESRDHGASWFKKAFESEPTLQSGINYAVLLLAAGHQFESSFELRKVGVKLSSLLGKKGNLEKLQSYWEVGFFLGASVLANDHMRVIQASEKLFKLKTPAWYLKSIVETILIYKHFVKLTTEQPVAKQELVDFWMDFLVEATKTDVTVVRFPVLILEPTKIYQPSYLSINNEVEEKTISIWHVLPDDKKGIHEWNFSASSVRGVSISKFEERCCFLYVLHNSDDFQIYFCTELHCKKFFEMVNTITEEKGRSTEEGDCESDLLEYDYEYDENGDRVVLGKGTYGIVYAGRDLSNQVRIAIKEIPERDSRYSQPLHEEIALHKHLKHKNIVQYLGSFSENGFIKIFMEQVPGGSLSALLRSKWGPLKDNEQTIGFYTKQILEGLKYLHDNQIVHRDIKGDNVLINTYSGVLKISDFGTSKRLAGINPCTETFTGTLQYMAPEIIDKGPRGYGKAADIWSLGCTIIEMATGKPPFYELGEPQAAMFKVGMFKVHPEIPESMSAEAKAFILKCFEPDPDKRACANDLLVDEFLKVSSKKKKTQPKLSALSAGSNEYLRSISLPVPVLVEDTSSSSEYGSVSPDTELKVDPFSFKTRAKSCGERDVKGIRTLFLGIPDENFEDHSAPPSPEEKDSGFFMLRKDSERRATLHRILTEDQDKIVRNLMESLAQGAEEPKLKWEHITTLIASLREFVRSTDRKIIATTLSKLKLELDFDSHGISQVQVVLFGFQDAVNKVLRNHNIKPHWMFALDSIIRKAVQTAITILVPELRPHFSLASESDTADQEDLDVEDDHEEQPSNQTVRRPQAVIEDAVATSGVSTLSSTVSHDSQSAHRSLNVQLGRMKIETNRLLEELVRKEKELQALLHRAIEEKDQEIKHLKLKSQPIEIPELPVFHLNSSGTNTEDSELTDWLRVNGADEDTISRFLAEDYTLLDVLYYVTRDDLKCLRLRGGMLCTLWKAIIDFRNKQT

Compound | inhibition at 1 µM (HASPIN) | inhibition at 1 µM (CDK5) | inhibition at 1 µM (AMPK-alpha2) | inhibition at 1 µM (DMPK) | inhibition at 1 µM (ASK1)
Cn1cc(-c2cnc(N)c3c(-c4ccc5c(c4)CCN5C(=O)Cc4ccccc4)csc23)cn1 [UNC10225012A] | 0% | 2% | 0% | 0% | 21%
CS(=O)(=O)Cc1ccc(Nc2nccc(-c3c(-c4cccc(NC(=O)C5CCCCC5)c4)nn4ncccc34)n2)cc1 [UNC10225159A] | 17% | 4% | 2% | 0% | 0%
Cc1ccc(NC(=O)Nc2cccc(C(F)(F)F)c2)cc1 [UNC10225187A] | 12% | 0% | 0% | 0% | 20%
COc1cccc(OC)c1C(=O)Nc1cccc(-c2nn3ccccc3c2-c2ccnc(Nc3cccc(F)c3)n2)c1 [UNC10225310A] | 0% | 21% | 4% | 2% | 22%
O=c1cc(N2CCOCC2)nc2n(Cc3cccc(Cl)c3Cl)c(C3CC3)nn12 [UNC10225469A] | 0% | 7% | 0% | 0% | 0%
